# Columns and labels:
# [1] = Topical treatment of healthy volunteers' skin, clinical and histological inflammation; type: in vivo, human; conditions: single topical application of 1,25D3
# Experimental: (§1) Patients and treatments. Human skin wounds were collected following informed consent by inducing 5 mm full-thickness wounds in volunteers (n=5) under aseptic conditions with local anesthesia as described. At 24 hours after incision, 4 mm punch biopsies were taken from the site of injury and immediately fixed in formalin for immunostaining or frozen in liquid N2 for subsequent RNA isolation. Intact skin from healthy volunteers served as control (n=4). To examine the effects of topical 1,25D3, healthy skin of volunteers (n=7) was treated once topically with 1,25D3 (1.0 mM) and left under occlusion for 4 days. Vehicle treated contralateral skin served as a control. After treatment, skin biopsies were obtained from both sites, fixed in formalin 10% and embedded in paraffin for immunostaining. All treatments and sample acquisitions, including skin biopsies, were approved by the committees on investigations involving human subjects.
# [2] = tested on: cathelicidin; assay: qPCR of cathelicidin mRNA in cultured keratinocytes; type: cell-based, human; conditions: for increase of cathelicidin mRNA: 24 hours
# Experimental: (§2) Cell culture and stimuli. Human keratinocytes were grown in serum-free EpiLife® cell culture media (Cascade Biologics; Portland, Oreg.) containing 0.06 mM Ca2+ and 1× EpiLife® defined growth supplement (EDGS) at 37° C. under standard tissue culture conditions. Stock cultures were maintained for up to five passages in this media with the addition of 50 U/mL penicillin and 50 μg/mL streptomycin. HaCaT keratinocytes were cultured in DMEM (Sigma, St. Louis, Mo.) with 10% FCS. Cells at 50-70% confluence were stimulated in fresh medium after preincubation with 1,25(OH)2 vitamin D3 (1,25D3; 0.1-100 nM, 4-24 h; Sigma). Alternatively, NHEK were stimulated in the presence of 1,25D3 (0.1-100 nM). Stimuli included TLR2,6 ligands Malp-2 (0.001-0.5 μg/ml; Alexis Biochemicals, Carlsbad, Calif.), FSL-1 (1-2 μg/ml, Invivogen, San Diego, Calif.) and zymosan (50 μg/ml; Invivogen), as well as flagellin (50 ng/ml; Alexis), LPS (1 μg/ml; Sigma), lipoteichoic acid (LTA; 10 μg/ml; Sigma), 19 kDA lipopeptide (10 μg/ml, a kind gift from S. Krutzik, Division of Dermatology, UCLA), CpG DNA (10 μg/ml; Sigma), Ca2+ (1.7 mM), LPS (1 μg/ml; Sigma), TNFα (20 ng/ml; Chemicon Temecula, Calif.) and TGFβ1 (0.1-1 μg/ml; R&D Systems, Minneapolis, Minn.). A TLR2 blocking antibody (αTLR2; clone TL2.1, 5 μg/ml, eBioscience, San Diego, Calif.) was utilized to investigate the role of TLR2 signaling. Furthermore, keratinocytes were pretreated with a vitamin D receptor antagonist (VDR-antagonist ZK159222 Schering AG; 10^-7M) or the CYP inhibitor itraconazole (ITRA; 10^-7M) before stimulation with TGFβ in the presence of 25OH vitamin D3 (25D3, 10 nM, Sigma).
# (§3) Real-time RT-PCR (qPCR). RNA was extracted from cells, epidermal constructs or tissue using Trizol® and 1 μg RNA was reverse transcribed using iScript® (BioRad, Hercules, Calif.). Expression of cathelicidin and GAPDH was analysed by real-time RT-PCR. Predeveloped Taqman® assay probes (ABI, Foster City, Calif.) were used for the analyses of the expression of CYP24A1 (24-hydroxylase), CYP27B1 (1α-hydroxylase), CD14, CD36, TLR1, TLR2, TLR4, TLR6 and murine CD14. All analyses were performed in triplicate from 2-5 independent experiments in an ABI Prism® 7000 Sequence Detection System. Fold induction relative to the vehicle treated control in in vitro experiments was calculated using the comparative Ct method, where ΔΔCt is ΔCt(stimulant)-ΔCt(vehicle), ΔCt is Ct(gene)-Ct(GAPDH) and Ct is the cycle at which an arbitrary detection threshold is crossed. For quantification of transcript abundance in tissue samples target gene expression was normalized to GAPDH and compared to non-treated or non-injured skin.
# [3] = tested on: TLR2; assay: qPCR of TLR2 mRNA in cultured keratinocytes; type: cell-based, human; conditions: 1,25D3 100 nM, keratinocyte monolayers, 24 hours
# Experimental: as §2, §3
# [4] = tested on: TLR2 protein; assay: Western blot of keratinocyte extracts; type: cell-based, human; conditions: 1,25D3 100 nM, monolayer keratinocyte extracts
# Experimental: Western Blot. Primary keratinocytes were stimulated with 1,25D3 (100 nM) or the vehicle for 24 hours and subsequently lysed in ice-cold lysis buffer (1% Triton-X in PBS containing proteinase inhibitors). After centrifugation, equal amounts of protein were mixed with loading buffer (0.25M Tris HCL, 10% SDS, 10% glycerol, 5% β-mercaptoethanol) and loaded onto a 10% Tris-Tricine gel (GeneMate, Kaysville, Utah). After separation, proteins were blotted onto a PVDF membrane (Millipore, Billerica, Mass.) and blocked in 5% milk (BioRad) in TBS 0.1% Tween20 for 1 h at RT. After washings in TBS 0.1% Tween20, membranes were stained with a rabbit polyclonal anti-CD14 (Abcam, Cambridge, Mass.) or an anti TLR2 antibody (eBioscience), washed again in TBS 0.1% Tween20 and reprobed with a HRP-coupled goat anti-rabbit antibody (DakoCytomation, Glostrup, Denmark). Stained protein was visualized using the Western Lightning® system (Perkin Elmer, Boston, Mass.).
# [5] = tested on: TLR2; assay: Topical treatment of healthy volunteers' skin, TLR2 immunostaining; type: in vivo, human; conditions: topical 1,25D3 1.0 mM once applied, 4 days, versus vehicle-treated contralateral skin
# Experimental: as §1
# Immunostaining. […] Nuclei were detected with DAPI. After subsequent washings with PBS slides, were mounted in ProLong Anti-Fade reagent (Molecular Probes, Eugene, Oreg.) and evaluated with an Olympus BX41 microscope (Olympus, Melville, N.Y.). […]
# NaOH, pH6.0). […] Sections were washed in PBS and detected with biotinylated secondary antibodies (Vector Laboratories, Burlingame, Calif.) and diaminobenzidine substrate (Sigma) per manufacturers' instructions.
# [6] = tested on: CD14; assay: qPCR of CD14 mRNA in cultured keratinocytes; type: cell-based, human; conditions: 24 hours
# Experimental: as §2, §3
structure (smiles),measurement,setting,value
"C=C1/C(=C\C=C2/CCC[C@]3(C)[C@@H]([C@H](C)CCCC(C)(C)O)CC[C@@H]23)C[C@@H](O)C[C@@H]1O [1,25D3, 1,25(OH)2 vitamin D3]",clinical or histological evidence of inflammation,[1],did not induce clinical or histological evidence of inflammation
same,"increase of cathelicidin expression over cells without 1,25D3","[2]; 1,25D3 0.1 nM, then Malp-2, dose dependent",up to 60 fold
same,increase of cathelicidin mRNA,"[2]; 10^−7 M 1,25D3 in the absence of butyrate",about 75 fold
same,increase of cathelicidin mRNA,"[2]; 10^−7 M 1,25D3 in the presence of butyrate (2 mM)",over 200 fold
same,TLR2 mRNA expression,[3],increases expression
same,TLR2 protein expression (Western Blot),[4],increases expression
same,TLR2 staining intensity in skin sections,[5],Staining intensity increased
same,CD14 mRNA expression,"[6]; 1,25D3 100 nM, keratinocyte monolayers",increases expression
same,CD14 transcript abundance,"[6]; 1,25D3 10^−8M",strongly upregulated
